“And” between values parts separate entries of the source, which are not always exact repeats. Identical values can stand only once. Like-named read-outs stand apart in the source and are kept apart here.
Legend:
[1] = biological target: PLpro from SARS-CoV-2 (Severe acute respiratory syndrome coronavirus 2, UniProt P0DTD1); assay: biochemical; assay type: biochemical; conditions: for remaining activity at 20 µM: inhibitor 20.00 uM
[2] = biological target: PLpro (Severe acute respiratory syndrome coronavirus 2, UniProt P0DTD1); assay: Intact protein ESI-MS to assess covalent adduct formation; assay type: binding, SARS-CoV-2; parameters: unit not given here
[3] = biological target: T1, USP30 (Homo sapiens, UniProt Q70CQ3); assay: biochemical; conditions: USP30 10 nM, Ub-rhodamine110
T1 construct: purchased LifeSensors, Inc. (Malvern, PA)

[4] = biological target: T2, USP15 (Homo sapiens, UniProt Q9Y4E8); assay: DUB selectivity assay, USP15 (Ub-rhodamine110); assay type: biochemical
T2 construct: purchased LifeSensors, Inc. (Malvern, PA)
T2 sequence (Q9Y4E8 1-981): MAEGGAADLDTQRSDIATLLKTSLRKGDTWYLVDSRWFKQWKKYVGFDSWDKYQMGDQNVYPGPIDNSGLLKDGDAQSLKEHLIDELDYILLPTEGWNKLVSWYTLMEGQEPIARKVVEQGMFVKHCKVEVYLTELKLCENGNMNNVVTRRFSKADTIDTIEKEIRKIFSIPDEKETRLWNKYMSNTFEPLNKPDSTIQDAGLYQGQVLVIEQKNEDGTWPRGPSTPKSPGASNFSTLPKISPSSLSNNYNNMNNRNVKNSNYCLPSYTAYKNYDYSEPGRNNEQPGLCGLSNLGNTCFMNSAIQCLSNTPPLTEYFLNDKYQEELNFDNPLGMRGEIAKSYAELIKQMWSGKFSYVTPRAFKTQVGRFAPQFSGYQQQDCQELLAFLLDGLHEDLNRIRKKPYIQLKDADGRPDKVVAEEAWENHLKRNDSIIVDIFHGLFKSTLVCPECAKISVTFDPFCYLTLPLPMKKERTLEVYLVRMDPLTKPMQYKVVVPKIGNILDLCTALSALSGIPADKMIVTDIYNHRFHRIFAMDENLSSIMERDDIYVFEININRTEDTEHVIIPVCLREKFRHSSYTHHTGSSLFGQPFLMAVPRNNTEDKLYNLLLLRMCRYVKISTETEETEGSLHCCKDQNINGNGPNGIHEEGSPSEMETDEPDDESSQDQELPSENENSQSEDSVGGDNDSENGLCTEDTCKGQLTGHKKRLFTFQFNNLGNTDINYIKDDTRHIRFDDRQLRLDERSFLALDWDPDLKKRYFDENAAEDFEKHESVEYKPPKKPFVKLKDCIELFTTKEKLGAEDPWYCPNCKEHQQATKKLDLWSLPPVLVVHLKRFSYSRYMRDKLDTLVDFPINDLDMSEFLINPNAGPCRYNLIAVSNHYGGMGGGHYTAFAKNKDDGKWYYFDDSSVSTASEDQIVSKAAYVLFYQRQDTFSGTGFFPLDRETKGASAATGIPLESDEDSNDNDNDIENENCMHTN

[5] = biological target: T3, USP8 (Homo sapiens, UniProt P40818); assay: biochemical; conditions: USP8 10 nM, Ub-rhodamine110
T3 construct: USP2c, USP4, USP7, USP8c, USP15, USP30WT, and UCH-L1; purchased LifeSensors, Inc. (Malvern, PA)

[6] = biological target: T4, USP4 (Homo sapiens, UniProt Q13107); assay: DUB selectivity assay, USP4 (Ub-rhodamine110); assay type: biochemical
T4 construct: purchased LifeSensors, Inc. (Malvern, PA)
T4 sequence (Q13107 1-963): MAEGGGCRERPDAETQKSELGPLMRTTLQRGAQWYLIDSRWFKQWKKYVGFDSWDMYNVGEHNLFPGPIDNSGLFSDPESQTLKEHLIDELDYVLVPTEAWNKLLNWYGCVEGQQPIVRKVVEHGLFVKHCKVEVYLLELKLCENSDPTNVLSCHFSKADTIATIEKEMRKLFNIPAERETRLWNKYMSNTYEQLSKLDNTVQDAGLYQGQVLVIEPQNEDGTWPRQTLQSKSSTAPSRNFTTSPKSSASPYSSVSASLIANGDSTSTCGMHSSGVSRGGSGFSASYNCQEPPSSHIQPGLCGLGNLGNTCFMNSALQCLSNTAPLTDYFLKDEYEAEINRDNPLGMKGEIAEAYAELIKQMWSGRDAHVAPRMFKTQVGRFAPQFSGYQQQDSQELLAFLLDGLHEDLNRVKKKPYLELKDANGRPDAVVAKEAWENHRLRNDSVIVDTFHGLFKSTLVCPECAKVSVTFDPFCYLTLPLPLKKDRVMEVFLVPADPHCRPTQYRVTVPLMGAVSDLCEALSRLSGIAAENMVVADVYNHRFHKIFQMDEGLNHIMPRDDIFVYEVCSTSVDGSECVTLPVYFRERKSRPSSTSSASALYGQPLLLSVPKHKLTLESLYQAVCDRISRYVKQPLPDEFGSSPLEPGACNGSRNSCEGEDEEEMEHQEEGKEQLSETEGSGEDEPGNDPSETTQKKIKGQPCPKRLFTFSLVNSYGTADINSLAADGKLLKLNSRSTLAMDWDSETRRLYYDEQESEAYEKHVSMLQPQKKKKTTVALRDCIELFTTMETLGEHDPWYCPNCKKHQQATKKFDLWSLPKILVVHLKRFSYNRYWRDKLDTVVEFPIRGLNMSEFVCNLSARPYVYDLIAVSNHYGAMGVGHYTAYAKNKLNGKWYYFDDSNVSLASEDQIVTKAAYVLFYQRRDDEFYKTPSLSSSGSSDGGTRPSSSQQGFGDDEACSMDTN

[7] = tested on: SARS-CoV-2 isolate USA-WA1/2020; conditions: for inhibition: read-out: cytopathic effect, % cell viability, duplicate wells
[8] = tested on: SARS-CoV-2 isolate USA-WA1/2020; assay: microbe, parasite or virus in culture; conditions: for inhibition at […]: Severe acute respiratory syndrome coronavirus 2, Vero C1008, read-out: cytopathic effect, % cell viability; for inhibition at 2.08 µM: Severe acute respiratory syndrome coronavirus 2, Vero C1008, read-out: cytopathic effect, % cell viability, [inhibitor] 2.08 uM; for inhibition at 16.65 µM: Severe acute respiratory syndrome coronavirus 2, Vero C1008, read-out: cytopathic effect, % cell viability, [inhibitor] 16.65 uM
[9] = Metabolic stability in rat liver microsomes; conditions: Sprague-Dawley
[10] = Metabolic stability in rat liver S9 fraction; conditions: Sprague-Dawley
[11] = Metabolic stability in human liver S9 fraction
[12] = Metabolic stability in mouse liver S9 fraction; conditions: CD-1, mouse

T3 sequence (P40818 777-1109): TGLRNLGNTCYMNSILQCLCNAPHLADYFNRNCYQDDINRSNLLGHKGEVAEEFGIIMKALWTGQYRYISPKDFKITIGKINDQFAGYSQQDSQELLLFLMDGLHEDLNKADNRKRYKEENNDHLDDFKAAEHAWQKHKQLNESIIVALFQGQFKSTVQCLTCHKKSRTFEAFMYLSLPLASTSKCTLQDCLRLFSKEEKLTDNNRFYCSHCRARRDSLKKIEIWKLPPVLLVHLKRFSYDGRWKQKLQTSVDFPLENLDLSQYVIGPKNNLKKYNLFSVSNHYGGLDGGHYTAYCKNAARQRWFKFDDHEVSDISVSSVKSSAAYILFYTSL
T1 sequence (Q70CQ3 whole entry): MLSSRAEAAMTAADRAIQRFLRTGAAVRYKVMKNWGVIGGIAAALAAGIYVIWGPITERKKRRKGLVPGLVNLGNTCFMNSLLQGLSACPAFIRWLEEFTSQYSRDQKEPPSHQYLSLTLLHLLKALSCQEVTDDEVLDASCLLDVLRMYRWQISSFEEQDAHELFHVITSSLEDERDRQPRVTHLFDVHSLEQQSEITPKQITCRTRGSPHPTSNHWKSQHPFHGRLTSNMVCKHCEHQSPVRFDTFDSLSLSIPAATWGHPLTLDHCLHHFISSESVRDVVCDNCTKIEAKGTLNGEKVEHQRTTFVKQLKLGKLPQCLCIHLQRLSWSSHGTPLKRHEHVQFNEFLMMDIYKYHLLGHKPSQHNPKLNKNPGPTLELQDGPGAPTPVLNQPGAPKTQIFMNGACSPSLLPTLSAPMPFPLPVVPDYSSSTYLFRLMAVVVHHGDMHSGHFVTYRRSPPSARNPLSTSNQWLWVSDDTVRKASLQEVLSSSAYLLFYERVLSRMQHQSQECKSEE

COC(=O)/C=C/C(=O)NNC(=O)CCc1ccccc1C(=O)N[C@H](C)c1cccc2ccccc12 [Compound 7, methyl(R,E)-4-(2-(3-(2-((1-(naphthalen-1 yl)ethyl)carbamoyl)phenyl)propanoyl)hydrazineyl)-4-oxobut-2-enoate]
remaining activity at 0.06 µM ([1]; 0.5 h, 0.06 uM inhibitor): 66.6% | remaining activity at 0.2 µM ([1]; 0.5 h, 0.20 uM inhibitor): 17.4% | remaining activity at 20.03 µM ([1]; 0.5 h, 20.03 uM inhibitor): 2.85% | remaining activity at 200 µM ([1]; 0.5 h, 200.00 uM inhibitor, 30-min preincubation): 4.35% | remaining activity at 0.06 µM ([1]; 0.5 h, inhibitor 0.06 uM): 66.6% | remaining activity at 0.2 µM ([1]; 0.5 h, inhibitor 0.20 uM): 17.4% | remaining activity at 20 µM ([1]; 0.5 h): 2.85% | remaining activity at 200 µM ([1]; 0.5 h, inhibitor 200.00 uM): 4.35% | Measured adduct mass [2]: 474 | IC50 [3]: > 30 µM | IC50 [4]: > 30 µM | IC50 [5]: > 30 µM | IC50 [6]: > 30 µM | % cell viability, cytopathic effect ([7]; 2.08 uM): 64.9953% | % cell viability, cytopathic effect ([7]; 8.33 uM): 95.2833% and 73.4931% | % cell viability, cytopathic effect ([7]; 16.65 uM): 97.0077% | inhibition ([7]; [inhibitor] 2.08 uM, 2.08 µM): 65% | inhibition ([7]; [inhibitor] 8.33 uM, 8.33 µM): 95.3% and 73.5% | inhibition ([7]; [inhibitor] 16.65 uM, 16.65 µM): 97% | viability at […] ([8]; Severe acute respiratory syndrome coronavirus 2, Vero C1008, read-out: % cell viability, cytopathic effect): 79.3% and 52.3% | viability at 2.08 µM ([8]; Severe acute respiratory syndrome coronavirus 2, Vero C1008, read-out: % cell viability, cytopathic effect, 2.08 uM): 80.5% | viability at 16.65 µM ([8]; Severe acute respiratory syndrome coronavirus 2, Vero C1008, read-out: % cell viability, cytopathic effect, 16.65 uM): 88.8% | inhibition at […] [8]: 79.3% and 52.3% | inhibition at 2.08 µM ([8]; duplicate wells): 80.5% | inhibition at 16.65 µM ([8]; duplicate wells): 88.8% | half-life [9]: 46 min | microsomal CLint [9]: 151 µL/min/mg | half-life [10]: 31 min | microsomal CLint [10]: 75.5 µL/min/mg | half-life [11]: 60 min | microsomal CLint [11]: 38.9 µL/min/mg | half-life [12]: 9 min | microsomal CLint [12]: 266 µL/min/mg

C[C@@H](NC(=O)c1ccccc1CCC(=O)NNC(=O)CCl)c1cccc2ccccc12 [Compound 9, (R)-2-(3-(2-(2-chloroacetyl)hydrazineyl)-3-oxopropyl)-N-(1-(naphthalen-1-yl)ethyl)benzamide]
remaining activity at 6.34 µM ([1]; 0.5 h, inhibitor 6.34 uM): 38.1% | remaining activity at 20 µM ([1]; 0.5 h): 17.8% | IC50 ([1]; after 30-min incubation, purified PLpro, Z-RLRGG-AMC substrate): 5.4 µM | Measured adduct mass [2]: 401 | IC50 [3]: > 30 µM | IC50 ([4]; USP15 1 nM, Ub-rhodamine110, read-out: IC50): > 30 µM | IC50 [5]: > 30 µM | IC50 ([6]; USP4 10 nM, Ub-rhodamine110, read-out: IC50): > 30 µM | inhibition ([7]; [inhibitor] 2.08 uM, 2.08 µM): 12% | inhibition ([7]; [inhibitor] 8.33 uM, 8.33 µM): 17.9% | inhibition ([7]; [inhibitor] 16.65 uM, 16.65 µM): 21% | EC50 ([8]; Severe acute respiratory syndrome coronavirus 2, Vero C1008, 48 h, read-out: EC50 (cytopathic effect)): 34 µM | inhibition at […] [8]: 17.4% and 13.2% | inhibition at 2.08 µM ([8]; duplicate wells): 10.7% | inhibition at 8.33 µM ([8]; Severe acute respiratory syndrome coronavirus 2, Vero C1008, read-out: cytopathic effect, % cell viability, [inhibitor] 8.33 uM, duplicate wells): 26.9% | inhibition at 16.65 µM ([8]; duplicate wells): 19.8% | half-life [9]: 13 min | microsomal CLint [9]: 515 µL/min/mg | half-life [10]: 16 min | microsomal CLint [10]: 140 µL/min/mg | half-life [11]: 3 min | microsomal CLint [11]: 689 µL/min/mg | half-life [12]: 4 min | microsomal CLint [12]: 544 µL/min/mg

Source: publication PMC10044120, “Potent and selective covalent inhibition of the papain-like protease from SARS-CoV-2” (Nature Communications, 2023)
